This is an account of results in ChEMBL document CHEMBL1201862, “PubChem BioAssay data set” (2004).

The source made the active and inactive calls.

The target in test [1] is Acylamino-acid-releasing enzyme (Homo sapiens, UniProt P13798). Put plainly: PME-1 inhibitor potency by in-gel ABPP, dose response, selectivity assay for PME-1 inhibitor project, cell lysate, mouse brain cytosol, FP-rhodamine, panel member APEH Assay Panel member description: Inhibition of N-acylaminoacyl-peptide hydrolase (APEH) (anti-target) (AID 2366).
Chain of Acylamino-acid-releasing enzyme (P13798 whole entry): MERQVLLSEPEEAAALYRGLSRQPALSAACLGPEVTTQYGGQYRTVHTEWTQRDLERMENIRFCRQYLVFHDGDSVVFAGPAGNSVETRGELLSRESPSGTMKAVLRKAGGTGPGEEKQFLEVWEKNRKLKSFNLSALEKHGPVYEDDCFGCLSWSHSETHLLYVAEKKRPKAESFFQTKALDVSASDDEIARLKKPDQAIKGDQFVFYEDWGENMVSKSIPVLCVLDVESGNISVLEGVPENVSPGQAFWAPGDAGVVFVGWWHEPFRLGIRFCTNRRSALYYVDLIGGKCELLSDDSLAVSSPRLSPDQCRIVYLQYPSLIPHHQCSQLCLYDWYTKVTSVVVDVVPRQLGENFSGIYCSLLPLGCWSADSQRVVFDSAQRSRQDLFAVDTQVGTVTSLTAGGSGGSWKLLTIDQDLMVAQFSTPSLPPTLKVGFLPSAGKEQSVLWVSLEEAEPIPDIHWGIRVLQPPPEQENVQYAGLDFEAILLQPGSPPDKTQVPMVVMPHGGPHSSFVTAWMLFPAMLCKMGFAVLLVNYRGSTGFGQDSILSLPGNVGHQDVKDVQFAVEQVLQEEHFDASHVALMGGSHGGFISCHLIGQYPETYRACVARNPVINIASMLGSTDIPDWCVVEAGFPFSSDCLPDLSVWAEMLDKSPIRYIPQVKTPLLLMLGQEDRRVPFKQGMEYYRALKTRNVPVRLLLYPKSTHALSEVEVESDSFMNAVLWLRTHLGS
The target of test [2] is X-box-binding protein 1 (Homo sapiens, UniProt P17861). The class given is functional, Cricetulus griseus.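 Note: confirmatory dose-response counter-screen serving a CHOP assay.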
Chain of X-box-binding protein 1 (P17861 whole entry): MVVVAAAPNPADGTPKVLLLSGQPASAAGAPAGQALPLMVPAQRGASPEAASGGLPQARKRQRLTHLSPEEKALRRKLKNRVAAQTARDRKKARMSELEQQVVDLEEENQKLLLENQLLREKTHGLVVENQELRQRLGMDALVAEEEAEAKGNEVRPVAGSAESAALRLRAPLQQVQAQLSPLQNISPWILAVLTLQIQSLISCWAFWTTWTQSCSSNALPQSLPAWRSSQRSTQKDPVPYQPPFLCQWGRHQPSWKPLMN
The target in test [3] is Trypsin (Sus scrofa, UniProt P00761). The test is described as follows: porcine trypsin inhibitors, dose response, selectivity assay for Rce1 protease inhibitor project, biochemical, quenched peptide fluorescence, cherry-pick (AID 488789).
Chain of Trypsin (P00761 whole entry): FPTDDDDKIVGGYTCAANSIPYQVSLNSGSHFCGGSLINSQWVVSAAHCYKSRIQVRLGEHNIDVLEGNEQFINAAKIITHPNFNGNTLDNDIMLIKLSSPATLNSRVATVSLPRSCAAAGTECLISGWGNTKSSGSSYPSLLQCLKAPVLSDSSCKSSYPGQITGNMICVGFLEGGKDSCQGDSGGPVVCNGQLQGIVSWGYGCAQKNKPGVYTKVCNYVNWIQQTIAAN
Test [4] deals with CAAX prenyl protease 2 (Homo sapiens, UniProt Q9Y256). The test is described as follows: human Rce1 protease inhibitors, dose response, biochemical, yeast membranes, quenched-peptide fluorescence, cherry-pick (AID 588849).
Chain of CAAX prenyl protease 2 (Q9Y256 whole entry): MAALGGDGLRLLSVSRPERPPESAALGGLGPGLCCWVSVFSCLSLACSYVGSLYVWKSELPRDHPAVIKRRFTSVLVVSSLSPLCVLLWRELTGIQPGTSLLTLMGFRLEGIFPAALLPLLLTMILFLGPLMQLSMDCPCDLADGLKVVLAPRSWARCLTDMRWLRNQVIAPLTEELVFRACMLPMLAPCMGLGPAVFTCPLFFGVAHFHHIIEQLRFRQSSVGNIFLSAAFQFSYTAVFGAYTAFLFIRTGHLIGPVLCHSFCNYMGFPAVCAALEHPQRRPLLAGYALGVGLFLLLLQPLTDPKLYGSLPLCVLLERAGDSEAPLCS
Test [5] has as its target T1, Neuropeptide Y receptor type 1 (Homo sapiens, UniProt P25929).
T1 sequence (P25929 whole entry): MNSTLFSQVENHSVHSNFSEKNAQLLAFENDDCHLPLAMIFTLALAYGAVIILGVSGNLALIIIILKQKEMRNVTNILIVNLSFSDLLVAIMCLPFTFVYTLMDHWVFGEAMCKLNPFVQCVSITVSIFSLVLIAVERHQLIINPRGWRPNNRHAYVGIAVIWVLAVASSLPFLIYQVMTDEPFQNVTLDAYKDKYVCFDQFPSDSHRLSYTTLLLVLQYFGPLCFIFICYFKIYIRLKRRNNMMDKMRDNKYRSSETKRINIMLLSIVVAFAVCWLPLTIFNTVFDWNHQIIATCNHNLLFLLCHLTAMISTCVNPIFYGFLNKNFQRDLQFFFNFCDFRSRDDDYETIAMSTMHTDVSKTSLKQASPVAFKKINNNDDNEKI
The test is described as follows: Fluorescence-based dose response cell-based high-throughput screening assay for agonists of NPY-Y1. [Related pubchem assays: 1697 (Screening assay (NPY-Y1 agonists).), 1359 (Screening assay (NPY-Y2 potentiators or agonists).), 1304 (Screening assay (NPY-Y1 potentiators or agonists).), 1704 (Screening assay (CNGC inhibitors).), 1791 (Summary AID.)]. The class given is functional.

Test [6] deals with HEK293. Put plainly: Fluorescence-based counterscreen for potentiators or agonists of NPY-Y1: cell-based high-throughput dose response assay for inhibitors of cyclic nucleotide gated ion channel (CNGC) activity. In this assay, the parental HEK293 cell line transfected with a cyclic-nucleotide gated ion channel (CNGC)-based cAMP sensor is used to measure inhibition of isoproterenol-induced CNGC …. The class given is functional. The note with it: Homo sapiens. Background: The purpose of a counterscreen is to sort out artefacts and off-target activity.

In test [7] the target is T2, Neuropeptide Y receptor type 2 (Homo sapiens, UniProt P49146).
T2 sequence (P49146 whole entry): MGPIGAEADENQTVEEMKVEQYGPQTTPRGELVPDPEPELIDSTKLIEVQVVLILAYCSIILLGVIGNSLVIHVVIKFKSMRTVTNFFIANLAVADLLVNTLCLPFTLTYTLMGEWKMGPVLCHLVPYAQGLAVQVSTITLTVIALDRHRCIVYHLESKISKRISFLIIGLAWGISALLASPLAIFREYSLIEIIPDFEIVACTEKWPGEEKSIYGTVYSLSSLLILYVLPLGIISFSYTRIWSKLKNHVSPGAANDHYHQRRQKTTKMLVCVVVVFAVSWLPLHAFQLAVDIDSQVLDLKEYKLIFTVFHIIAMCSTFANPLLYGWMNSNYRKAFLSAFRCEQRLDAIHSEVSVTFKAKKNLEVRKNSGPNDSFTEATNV
Put plainly: Fluorescence counterscreen for potentiators or agonists of NPY-Y1: Cell-based high-throughput dose response assay for potentiators or agonists of NPY-Y2. In kind it is functional.

In test [8] the target is T2, Neuropeptide Y receptor type 2. Put plainly: Fluorescence-based counterscreen for agonists of NPY-Y1: cell-based high-throughput dose response assay for agonists of NPY-Y2. In kind it is functional.
For test [9], the target named is T3, Rac GTPase-activating protein 1 (Homo sapiens, UniProt Q9H0H5).
T3 sequence (Q9H0H5 whole entry): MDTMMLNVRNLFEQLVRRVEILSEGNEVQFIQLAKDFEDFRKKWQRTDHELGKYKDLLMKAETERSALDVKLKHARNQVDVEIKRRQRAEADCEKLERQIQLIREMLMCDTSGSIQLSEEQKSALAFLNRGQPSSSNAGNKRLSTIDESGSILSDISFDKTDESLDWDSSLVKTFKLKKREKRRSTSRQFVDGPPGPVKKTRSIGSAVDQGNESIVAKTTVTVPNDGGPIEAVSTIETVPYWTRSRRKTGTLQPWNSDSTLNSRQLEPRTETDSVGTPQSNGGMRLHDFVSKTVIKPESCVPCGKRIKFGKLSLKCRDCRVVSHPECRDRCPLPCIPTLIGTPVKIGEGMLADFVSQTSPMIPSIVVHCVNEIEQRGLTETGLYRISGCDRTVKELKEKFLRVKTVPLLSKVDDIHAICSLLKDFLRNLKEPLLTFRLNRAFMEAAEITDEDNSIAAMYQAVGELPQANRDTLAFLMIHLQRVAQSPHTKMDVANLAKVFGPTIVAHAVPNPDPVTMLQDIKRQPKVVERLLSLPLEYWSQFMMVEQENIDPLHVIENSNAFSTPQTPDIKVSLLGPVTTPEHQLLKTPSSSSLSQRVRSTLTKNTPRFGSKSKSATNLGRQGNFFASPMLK
The test is described as follows: MgcRacGAP GTPase-activating activity inhibitors, confirmation, biochemical, ADP Hunter fluorescence, primary and confirmatory (AID 624330). In kind it is functional.

For test [10], the target named is T1, Neuropeptide Y receptor type 1. The test is described as follows: Fluorescence-based dose response cell-based high-throughput screening assay for potentiators or agonists of NPY-Y1. The class given is functional.
The test system of test [11] is HeLa. Put plainly: Cytotoxicity counterscreen assay for transcriptional activators of heat shock protein 70 (Hsp70). [Related pubchem assays: 1203, 1252 ]. In kind it is functional. The following applies: Homo sapiens.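 Note: cells exposed to compound for 16 hours before readout.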
Test [12] has as its target Acyl-homoserine lactone acylase PvdQ (Pseudomonas aeruginosa (strain LESB58), UniProt Q9I194). The test is described as follows: P. aeruginosa PvdQ acylase inhibitors, dose response, biochemical, fluorescence, plate reader and imaging, cherry-picks (AID 493231).
Test [13] addresses T4, Eukaryotic translation initiation factor 4H (Homo sapiens, UniProt Q15056). Put plainly: human eIF4H binding inhibitors, primary screen, translation initiation inhibitor project, biochemical, uHTS, fluorescence polarization (AID 2012).
Test [14] has as its target T5, Polyadenylate-binding protein 1 (Homo sapiens, UniProt P11940). Put plainly: PABP inhibition in translation initiation, SAR follow-up (AID 435018). The class given is functional.
Test [15] has as its target T4, Eukaryotic translation initiation factor 4H. The test is described as follows: eIF4H inhibition in translation initiation, SAR follow-up (AID 435011). In kind it is functional.
Test [16] deals with DNA dC->dU-editing enzyme APOBEC-3G (Homo sapiens, UniProt Q9HC16). In kind it is functional.
Chain of DNA dC->dU-editing enzyme APOBEC-3G (Q9HC16 whole entry): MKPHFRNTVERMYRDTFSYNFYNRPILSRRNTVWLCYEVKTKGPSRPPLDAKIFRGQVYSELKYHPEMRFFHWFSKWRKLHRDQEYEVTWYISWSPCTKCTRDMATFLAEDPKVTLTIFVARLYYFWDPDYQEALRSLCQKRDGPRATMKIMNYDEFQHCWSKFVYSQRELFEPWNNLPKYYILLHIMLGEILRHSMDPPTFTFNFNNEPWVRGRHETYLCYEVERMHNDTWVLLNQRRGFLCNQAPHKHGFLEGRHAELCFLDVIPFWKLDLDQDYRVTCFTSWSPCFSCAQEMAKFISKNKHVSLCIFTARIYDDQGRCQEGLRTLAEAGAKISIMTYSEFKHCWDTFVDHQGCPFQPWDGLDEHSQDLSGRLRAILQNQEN
Test [17] addresses DNA dC->dU-editing enzyme APOBEC-3A (Homo sapiens, UniProt P31941). Put plainly: Dose Response confirmation of small molecule APOBEC3A DNA Deaminase Inhibitors via a fluorescence-based single-stranded DNA deaminase assay. [Related pubchem assays (depositor defined):AID493011, AID493024]. In kind it is functional.
The target in test [18] is T5, Polyadenylate-binding protein 1. Put plainly: PABP poly(A) RNA binding inhibitors, primary screen, biochemical, fluorescence polarization, uHTS (AID 2014).
Test [19] deals with T6, Neuropeptides B/W receptor type 1 (Homo sapiens, UniProt P48145).
T6 sequence (P48145 whole entry): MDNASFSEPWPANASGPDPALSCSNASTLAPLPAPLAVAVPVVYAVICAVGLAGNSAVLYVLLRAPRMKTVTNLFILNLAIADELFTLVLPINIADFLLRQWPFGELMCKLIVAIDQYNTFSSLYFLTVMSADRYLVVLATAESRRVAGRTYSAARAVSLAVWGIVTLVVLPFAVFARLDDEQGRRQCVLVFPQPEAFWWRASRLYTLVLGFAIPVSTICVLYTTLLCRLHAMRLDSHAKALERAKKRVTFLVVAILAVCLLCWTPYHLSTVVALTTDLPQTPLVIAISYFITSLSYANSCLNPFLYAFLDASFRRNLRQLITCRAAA
The test is described as follows: Fluorescence-based dose response cell-based high throughput screening assay to identify antagonists of the G-protein coupled receptor 7 (GPR7). [Related pubchem assays: 1952 (Screening assay (GPR7 antagonists).), 1880 (Summary AID.)]. The class given is functional.

The target in test [20] is Melanin-concentrating hormone receptor 1 (Homo sapiens, UniProt Q99705). The test is described as follows: Fluorescence-based counterscreen for antagonists of the G-protein coupled receptor 7 (GPR7): cell-based high throughput dose response assay to identify antagonists of the melanin-concentrating hormone receptor 1 (MCHR1). The class given is functional.
Chain of Melanin-concentrating hormone receptor 1 (Q99705 whole entry): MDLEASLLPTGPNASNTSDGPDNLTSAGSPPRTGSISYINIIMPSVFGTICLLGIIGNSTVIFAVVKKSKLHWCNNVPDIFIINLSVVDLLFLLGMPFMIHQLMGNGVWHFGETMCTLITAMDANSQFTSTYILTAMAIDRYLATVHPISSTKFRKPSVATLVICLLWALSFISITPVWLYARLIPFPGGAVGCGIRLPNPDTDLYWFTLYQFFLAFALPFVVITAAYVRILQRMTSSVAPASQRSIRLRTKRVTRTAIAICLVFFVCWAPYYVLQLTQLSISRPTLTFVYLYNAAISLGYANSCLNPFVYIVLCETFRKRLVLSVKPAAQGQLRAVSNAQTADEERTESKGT

T5 sequence (P11940 whole entry): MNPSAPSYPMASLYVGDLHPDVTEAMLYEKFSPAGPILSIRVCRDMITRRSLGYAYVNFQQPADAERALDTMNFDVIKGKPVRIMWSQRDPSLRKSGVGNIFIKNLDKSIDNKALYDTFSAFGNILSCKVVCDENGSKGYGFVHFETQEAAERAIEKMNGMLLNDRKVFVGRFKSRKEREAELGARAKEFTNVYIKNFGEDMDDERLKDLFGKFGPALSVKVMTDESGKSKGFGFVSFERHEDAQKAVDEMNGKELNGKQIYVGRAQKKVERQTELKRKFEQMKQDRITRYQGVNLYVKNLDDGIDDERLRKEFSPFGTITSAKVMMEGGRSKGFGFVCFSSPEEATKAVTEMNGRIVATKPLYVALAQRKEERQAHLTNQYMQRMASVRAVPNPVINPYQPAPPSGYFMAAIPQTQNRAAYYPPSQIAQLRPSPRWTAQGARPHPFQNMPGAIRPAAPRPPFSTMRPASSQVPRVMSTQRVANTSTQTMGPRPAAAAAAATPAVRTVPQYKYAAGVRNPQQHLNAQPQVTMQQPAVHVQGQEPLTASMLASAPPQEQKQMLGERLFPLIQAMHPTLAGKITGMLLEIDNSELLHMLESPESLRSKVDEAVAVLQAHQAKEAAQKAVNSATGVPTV
Chain of DNA dC->dU-editing enzyme APOBEC-3A (P31941 whole entry): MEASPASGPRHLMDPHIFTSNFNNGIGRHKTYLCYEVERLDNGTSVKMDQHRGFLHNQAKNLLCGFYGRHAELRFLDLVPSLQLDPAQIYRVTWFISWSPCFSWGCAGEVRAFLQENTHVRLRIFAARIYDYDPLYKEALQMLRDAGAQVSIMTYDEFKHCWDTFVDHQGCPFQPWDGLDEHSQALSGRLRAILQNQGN
Chain of Acyl-homoserine lactone acylase PvdQ (Q9I194 24-193 limits assumed): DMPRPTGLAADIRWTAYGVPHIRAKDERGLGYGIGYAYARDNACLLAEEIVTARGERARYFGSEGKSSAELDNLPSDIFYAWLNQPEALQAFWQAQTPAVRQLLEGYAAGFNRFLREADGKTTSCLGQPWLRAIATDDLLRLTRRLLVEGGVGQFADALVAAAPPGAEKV
Chain of Acyl-homoserine lactone acylase PvdQ (Q9I194 217-762 limits assumed): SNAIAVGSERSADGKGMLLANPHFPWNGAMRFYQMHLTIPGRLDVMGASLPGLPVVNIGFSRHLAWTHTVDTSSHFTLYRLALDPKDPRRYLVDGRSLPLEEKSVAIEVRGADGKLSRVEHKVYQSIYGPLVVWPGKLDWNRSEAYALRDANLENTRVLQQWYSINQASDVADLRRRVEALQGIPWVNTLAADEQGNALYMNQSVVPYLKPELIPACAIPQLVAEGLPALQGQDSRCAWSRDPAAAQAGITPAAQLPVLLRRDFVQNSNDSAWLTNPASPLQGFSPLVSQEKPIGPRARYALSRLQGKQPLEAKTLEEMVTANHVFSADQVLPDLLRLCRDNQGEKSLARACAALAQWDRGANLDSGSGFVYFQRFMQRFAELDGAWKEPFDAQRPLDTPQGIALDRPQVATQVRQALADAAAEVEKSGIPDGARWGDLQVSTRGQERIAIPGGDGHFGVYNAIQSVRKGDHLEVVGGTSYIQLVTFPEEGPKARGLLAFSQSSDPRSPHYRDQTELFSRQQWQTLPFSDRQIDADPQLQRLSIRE

Regarding `CS(=O)(=O)/C(C#N)=C/c1cccn1S(=O)(=O)c1ccccc1`, in [1], the IC50 was 20 µM (inactive).
With `O=C(CNc1cccc(C(F)(F)F)c1)N/N=C/c1cccc(Br)c1`, in test [2], the “Absolute IC50 (XBP1)” value was 10 µM.
`CCOP(=O)(c1ccccc1)c1nc(-c2ccccc2Cl)oc1N1CCCCC1` (stereo not given): the concentration at half-maximal activity (AC50) in test [3] is 4.67 µM (active); in test [4] it was 5.21 µM (active).
Turning to `CCOC(=O)C(Cc1ccccc1)C(=O)Nc1ccc(N(CC)CC)cc1` (stereo not given), the EC50 in test [5] was 7.05 µM (active); in test [7], 23.9 µM (not active); in test [8], 12.4 µM (not active); in test [10] it was 5.4 µM (active). The IC50 in test [6] was 18.4 µM (not active); in test [9] it was 93.1 µM (active).
Regarding `CCOC(=O)C1CCN(c2ccc([N+](=O)[O-])cc2)CC1`, in test [11], the CC50 is listed as > 33 µM (not active). For the same molecule, in test [12], the AC50 was 40.5 µM (active).
For the molecule `Cc1ccc(NC(=O)C2CCN(C(=O)c3cccs3)CC2)c(C)c1`, the IC50 was > 100 µM (inactive) in [13]; 4.95 µM (active) in test [14]; 47.6 µM (active) in [15]; 6.56 µM (active) in test [16]; 4.37 µM (active) in [17]; 6.51 µM (active) in test [18].
Take `COc1ccc(S(=O)(=O)N2CCC(C(=O)NCc3ccco3)CC2)cc1`: the IC50 in test [19] and in test [20] was > 43.8 µM (not active) in each case.

Broadly, the IC50 is the concentration that gives 50% inhibition. Usually AC50 stands for the concentration at which the activity in the assay is half-maximal. Broadly, the EC50 is the concentration at which the effect is half-maximal. The CC50 is the concentration that lowers cell viability or growth by half. Lower therefore signals harm at low concentration.
